Patent US6537797B1, “Compositions and methods useful in bioremediation of polychlorinated biphenyls” (Indiana University, Advanced Research and Technology …, priority 1999, dated 2003)

Legend:
Assay type in all cases: cell-based
[1] = test system: consortia of bacterial strains from PCB-contaminated tertiary lagoon sludge; test: Degradation of selected PCB congeners in aerobic enrichment cultures; conditions: 100 ppm (w/v) mixture of five PCB congeners, with or without biphenyl cosubstrate; hexane extraction 45 days after inoculation, GC
Excerpt: A consortia of bacterial strains was isolated from tertiary lagoon sludge that was contaminated with PCBs for over twenty five years. The sludge was collected from the Winston-Thomas sewage treatment plant in Bloomington, Ind. PCB-degrading strains were enriched using a minimal medium comprising a 100 ppm (w/v) mixture of the following five PCB congeners as the carbon source: 2,3-dichlorobiphenyl (DCBP), 2,4,4′-trichlorobiphenyl (TCBP), 2,4,6-trichlorobiphenyl, 2,2′,5,5′-tetrachlorobiphenyl, and 2,2′,4,4′,5,5′-hexachlorobiphenyl. Biphenyl was also added to the medium in some samples as an additional carbon source to stimulate the cometabolism of biphenyl and the PCBs. About 30-35 milliliters of the medium was inoculated with 5-10 milliliters of PCB-contaminated sludge and incubated in 160-mL serum bottles sealed with Teflon-coated stoppers. The bottles were incubated horizontally on a shaker table at room temperature. The headspace in the bottles was purged with air once a week to maintain aerobic conditions. Every 4-6 weeks, 10% of the culture was transferred to fresh medium. […] The concentrations of the PCB congeners were determined by extracting bottles with hexane 45 days after inoculation (a single bottle extraction), and analyzing hexane extracts by gas chromatography using a DB-5 column (J&W Scientific, Folsum, Calif.) and an electron capture detector. The results from this analysis are depicted in FIG. 1.

bacterial strain SK-1 = test: Growth substrate tests in liquid medium; conditions: initial concentration 100 parts per million, except chlorobenzoate 2-3 millimolar
Description: (§1) The ability of the four isolated strains to grow on selected polychlorobiphenyls as a sole carbon source was assessed.
(§2) (All tests were conducted in a liquid medium. The initial concentration of the organic substrate was 100 parts per million, except chlorobenzoate, which was 2-3 millimolar).

bacterial strain SK-4 [2] = test: Growth substrate tests in liquid medium; conditions: initial concentration 100 parts per million, except chlorobenzoate 2-3 millimolar
Description: as §1, §2

bacterial strain SK-3 [3] = test: Growth substrate tests in liquid medium; conditions: initial concentration 100 parts per million, except chlorobenzoate 2-3 millimolar
Description: as §1, §2

bacterial strain SK-2 = test: Growth substrate tests in liquid medium; conditions: initial concentration 100 parts per million, except chlorobenzoate 2-3 millimolar
Description: as §1, §2

bacterial strain SK-3 [4] = test: Characterization of SK-3: growth on and degradation of chlorobiphenyls and chlorobenzoates; conditions: for Chloride and chlorobenzoic acid (CBA) formed on degradation by SK-3: 88 hours, 23° C., aerobic, shaker table
Description: The concentrations of chlorobenzoates and dichlorobiphenyls were assessed after hexane extraction of bottles using gas chromatography analysis of the extracts with an electron capture detector. Chlorobenzoates were analyzed using standard columns after derivitization with pentafluorobenzyl bromide. Dichlorobiphenyls were analyzed using a DB-5 column (J&W Scientific, Fulsom, Calif.).
The results from this experiment are depicted in FIG. 5.
The growth of SK-3 on 4-chlorobiphenyl (4-CB) was compared with growth on its non-chlorinated form, biphenyl. […] The results from this experiment are depicted in FIG. 6. The concentration of chloride ion was determined using ion chromatography on a standard Dionex ion chromatography column. The concentration of 4-CB was assessed after hexane extraction of bottles by analyzing the hexane extracts using gas chromatography on a DB-5 column (J&W Scientific, Fulsom, Calif.) and an electron capture detector.
The growth of SK-3 on chlorobenzoates was assessed. […] The results from this experiment are depicted in FIG. 7.
The degradation of three different monochlorobiphenyls, (2-CB, 3-CB, and 4-CB) by SK-3 was assessed at 23° C. under aerobic conditions on a shaker table. After incubation of SK-3 with the selected monochlorobiphenyl for 88 hours, the concentrations of chloride and the corresponding chlorobenzoic acids (CBA) was assessed as described herein. The results from this experiment are depicted in FIG. 8.
The growth of SK-3 on dichloro-biphenyls was also assessed. […] The results of this experiment are depicted in FIG. 9.

bacterial strain SK-4 [5] = test: Characterization of SK-4: growth on and degradation of 2,2′-DCBP and 2,4′-DCBP; conditions: 1.5×10^7 cells per milliliter
Description: The same methods for determining concentrations of analytes and for the incubation of the bacterial strain with growth substrate described herein for the previous analyses were used in the experiments to characterize SK-4. The concentration of SK-4 cells in the experiments was 1.5×10^7 cells per milliliter and the concentration of 2,2′-DCBP or 2,4′-DCBP was 100 milligrams per liter. […] Ortho-substituted congeners are common degradation products of anaerobic reductive dechlorination of more highly chlorinated PCBs (PCBs comprising more than two chlorine atoms) by anaerobic bacteria.
2,2′-DCBP was supplied at a concentration of 100 milligrams per liter dissolved in heptamethyl nonane (HMN), a non-biodegradable PCB solvent. Controls contained HMN but lacked 2,2′-DCBP.

[6] = substrate in heptamethyl nonane

| Compound | Degradation of PCB congener in aerobic enrichment cultures [1] | Growth of SK-1 on the substrate as sole carbon source (bacterial strain SK-1) | Growth of SK-4 on the substrate as sole carbon source (bacterial strain SK-4 [2]) | Growth of SK-3 on the substrate as sole carbon source (bacterial strain SK-3 [3]) | Growth of SK-2 on the substrate as sole carbon source (bacterial strain SK-2) | Chloride and chlorobenzoic acid (CBA) formed on degradation by SK-3 (bacterial strain SK-3 [4]) | Growth of SK-4 on the substrate as sole carbon source (bacterial strain SK-4 [5]; 100 milligrams per liter) | Chloride release on degradation by SK-4 (bacterial strain SK-4 [5]; [6]) | Chlorobenzoate production on degradation by SK-4 (bacterial strain SK-4 [5]; [6]) | Release of chloride during degradation by SK-3 (bacterial strain SK-3 [4]; chloride by ion chromatography) |
| --- | --- | --- | --- | --- | --- | --- | --- | --- | --- | --- |
| Clc1ccc(-c2ccc(Cl)cc2Cl)cc1 [2,4,4′-TCBP, 2,4,4′-trichlorobiphenyl] | degraded only in the bottles which contained biphenyl as a cosubstrate | – | – | – | – | – | – | – | – | – |
| Clc1ccccc1-c1ccccc1 [2-chlorobiphenyl] | – | Yes | Yes | Yes | Yes | partial release of chloride and production of 2-CBA | – | – | – | – |
| O=C(O)c1cccc(Cl)c1 [3-chlorobenzoate] | – | No | No | No | No | – | – | – | – | – |
| Clc1cc(Cl)c(-c2ccccc2)c(Cl)c1 [2,4,6-TCBP, 2,4,6-trichlorobiphenyl] | degraded only in the bottles which contained biphenyl as a cosubstrate | – | – | – | – | – | – | – | – | – |
| Clc1ccc(Cl)c(-c2ccccc2)c1 [2,5-DCBP] | – | Likely | No | No | No | – | – | – | – | – |
| Clc1ccccc1-c1ccccc1Cl [2,2′-DCBP, 2,2′-dichlorobiphenyl] | – | No | exhibited growth and Yes | No | No | – | growth | stoichiometric release of chloride | completely transformed into 2-CBA | – |
| Clc1ccc(Cl)c(-c2ccccc2Cl)c1 [2,2′,5-TCBP] | – | – | No | – | – | – | – | – | – | – |
| c1ccc(-c2ccccc2)cc1 [Biphenyl] | – | Yes | Yes | Yes | Yes | – | – | – | – | – |
| Oc1ccccc1 [Phenol] | – | Yes | Yes | Yes | No | – | – | – | – | – |
| Clc1ccc(-c2ccc(Cl)cc2)cc1 [4,4′-DCBP] | – | – | No | No | – | – | – | – | – | – |
| O=C(O)CCl [Chloroacetate] | – | Yes | Yes | Yes | No | – | – | – | – | – |
| 2,3,4-trichlorobenzoate | – | No | – | No | No | – | – | – | – | – |
| Clc1cccc(-c2cccc(Cl)c2)c1 [3,3′-DCBP] | – | – | No | No | – | – | – | – | – | – |
| Clc1ccccc1-c1cccc(Cl)c1Cl [2,2′,3-TCBP] | – | No | No | No | No | – | – | – | – | – |
| c1ccc2ccccc2c1 [Naphthalene] | – | No | No | No | No | – | – | – | – | – |
| O=C(O)c1ccccc1Cl [2-chlorobenzoate] | – | No | No | No | No | – | – | – | – | – |
| Clc1ccc(-c2ccccc2)cc1 [4-chlorobiphenyl] | – | Yes | Yes | Yes | Yes | did not generate 4-CBA | – | – | – | stoichiometric production of chloride |
| O=C(O)c1ccccc1 [Benzoate] | – | Yes | Yes | Yes | Yes | – | – | – | – | – |
| Clc1ccc(-c2ccccc2Cl)cc1Cl [2′,3,4-TCBP] | – | No | No | No | No | – | – | – | – | – |
| Clc1cc(Cl)cc(-c2ccccc2)c1 [3,5-DCBP] | – | No | No | No | No | – | – | – | – | – |
| Clc1cccc(-c2ccccc2)c1 [3-chlorobiphenyl] | – | Yes | Yes | Yes | Yes | transformed 3-CB to 3-CBA without producing chloride | – | – | – | – |
